Reference: US12582598B2, “Topical anti-inflammatory pharmaceutical composition comprising Zileuton” (QURIENT CO., LTD., priority 2019, dated 2026)
In brackets after ≈: the same amount, converted by molar mass.

How the values were obtained:
[1] = system: phorbol ester induced ear edema in ICR mice; test: Phorbol ester induced ear edema test; type: in vivo
Description: Phorbol Ester Induced Ear Edema Test
The effect of Zileuton-containing formulations on phorbol ester induced ear edema in ICR mice was evaluated. One hundred and twenty (120) female ICR mice were assigned to eleven (11) groups by randomization with BioBook software to achieve similar mean weight and right ear thickness baseline among groups. Mice were terminated by 95% CO2 asphyxiation and then cervical dislocation.
Totally nine (9) Zileuton-containing formulations which are SO13, SO17, WB6, Gel-10, Gel-11, LO3, LO13, SPC19 and Zileuton 1.0% cream were selected for the tests Dexamethasone were used for the reference and Acetone was treated to the vehicle group.
Mice were anesthetized with 2-5 isoflurane. The mice were sensitized by painting 5 μg of phorbol ester dissolved in 0.02 mL of Acetone on ear inside and out. […] Six (6) hours after the modeling, the both side's ear thickness were measured after anesthetized by isoflurane (2-3%), respectively. Ear swelling response was determined by ear thickness measured with a micrometer before challenge and 6 hours after challenge and reported as the mean change in ear thickness (ΔT±S.E.M.). Percent suppression of ear swelling response was calculated as % suppression=[1−(ΔT of sensitized mice exposed to experimental treatment/ΔT of sensitized mice exposed to vehicle treatment)]×100.

[2] = Approximate solubility of Zileuton in various solvents/vehicles; type: physicochemical
Description: Solubility of Zileuton in Various Solvents
Approximately solubility of the Zileuton was measured in different vehicles. Semi-soild and waxy solid excipients were melted and tested at 50° C. or 70° C.

Q: For C[C@@H]1C[C@H]2[C@@H]3CCC4=CC(=O)C=C[C@]4(C)[C@@]3(F)[C@@H](O)C[C@]2(C)[C@@]1(O)C(=O)CO [Dex, Dexamethasone], which “ear swelling (ear swelling response)” value ([1]; ICR mice, phorbol ester 5 μg/ear, result in words) is on record?
A: The value was “significant decrease in ear swelling”.

Q: And the “Suppression Rate: % suppression Vs G1-right ear” value ([1]; female ICR mice, phorbol ester (PMA) 5 μg/ear, topical treatment, ear thickness 6 hours after challenge, vs vehicle (Acetone) group)?
A: Its value is 27.14%.

Q: With CC(c1cc2ccccc2s1)N(O)C(N)=O (racemic) [Zileuton, (±)-1-(1-(benzo[b]thiophen-2-yl)ethyl)-1-hydroxyurea] as the compound, how does the solubility ([2]; 25 mM sodium citrate buffer, 25 °C, pH 4, aqueous buffer, vehicle 25 mM sodium citrate buffer solution (pH = 4)) read?
A: Its solubility is less than 5 mg/mL.

Q: What about the solubility ([2]; 20% 2-Hydroxypropyl-β-cyclodextrin in water, 25 °C, aqueous with cosolvent or surfactant or cyclodextrin, vehicle 20% 2-Hydroxypropyl-β-cyclodextrin in water) of the same compound?
A: Its solubility is 10 to 16.7 mg/mL (≈ 42.3 to 70.7 mM).

Q: And the solubility ([2]; 20% Poloxamer 188 in water, 25 °C, aqueous with cosolvent or surfactant or cyclodextrin, vehicle 20% Poloxamer 188 water)?
A: The solubility was less than 5 mg/mL.

Q: And the solubility ([2]; 20% Sulfobutylether-β-cyclodextrin in water, 25 °C, aqueous with cosolvent or surfactant or cyclodextrin, vehicle 20% Sulfobutylether-β-cyclodextrin in water)?
A: The solubility was 10 to 16.7 mg/mL (≈ 42.3 to 70.7 mM).

Q: And the solubility ([2]; 25 °C, pH 4, aqueous with cosolvent or surfactant or cyclodextrin, vehicle 20% 2-Hydroxypropyl-β-cyclodextrin in pH 4 sodium citrate buffer)?
A: Its solubility is 10 to 16.7 mg/mL (≈ 42.3 to 70.7 mM).

Q: And the solubility ([2]; 25 °C, pH 4, aqueous with cosolvent or surfactant or cyclodextrin, vehicle 20% Sulfobutylether-β-cyclodextrin in pH 4 sodium citrate buffer)?
A: The solubility was 5 to 10 mg/mL (≈ 21.2 to 42.3 mM).

Q: What about the solubility ([2]; Beeswax polyethylene glycol-8, 70 °C, oil or lipid, vehicle Beeswax polyethylene glycol-8, 70° C.) of the same compound?
A: Its solubility is 15.7 to 25 mg/mL (≈ 66.4 to 106 mM).

Q: What about the solubility ([2]; Caprylic glycerides, 50 °C, oil or lipid, vehicle Caprylic glycerides) of the same compound?
A: Its solubility is 18.2 to 28.6 mg/mL (≈ 77 to 121 mM).

Q: What about the solubility ([2]; Caprylocaproyl polyoxyl glycerides, 25 °C, oil or lipid, vehicle Caprylocaproyl polyoxyl glycerides) of the same compound?
A: Its solubility is 40 to 66.7 mg/mL (≈ 169 to 282 mM).

Q: And the solubility ([2]; Castor oil, 25 °C, oil or lipid, vehicle Castor oil)?
A: The solubility was less than 5 mg/mL.

Q: What about the solubility ([2]; Corn oil, 25 °C, oil or lipid, vehicle Corn oil) of the same compound?
A: Its solubility is less than 5 mg/mL.

Q: And the solubility ([2]; Diethylene glycol monoethyl ether, 25 °C, organic solvent or mixture, vehicle Diethylene glycol monoethyl ether)?
A: The solubility was greater than 200 mg/mL.

Q: And the solubility ([2]; Dimethyl acetamide, 25 °C, organic solvent or mixture, vehicle Dimethyl acetamide)?
A: Its solubility is 66.7 to 100 mg/mL (≈ 282 to 423 mM).

Q: And the solubility ([2]; Dimethyl formamide, 25 °C, organic solvent or mixture, vehicle Dimethyl formamide)?
A: Its solubility is 100 to 200 mg/mL (≈ 423 to 846 mM).

Q: What about the solubility ([2]; Dimethyl sulfoxide, 25 °C, organic solvent or mixture, vehicle Dimethyl sulfoxide) of the same compound?
A: The solubility was 100 to 200 mg/mL (≈ 423 to 846 mM).

Q: What about the solubility ([2]; Ethanol, 25 °C, organic solvent or mixture, vehicle Ethanol) of the same compound?
A: The solubility was 40 to 50 mg/mL (≈ 169 to 212 mM).

Q: What about the solubility ([2]; Ethyl oleate, 25 °C, oil or lipid, vehicle Ethyl oleate) of the same compound?
A: The solubility was less than 5 mg/mL.

Q: And the solubility ([2]; Ethylene glycol palmitostearate, 70 °C, oil or lipid, vehicle Ethylene glycol palmitostearate)?
A: Its solubility is 50 to 100 mg/mL (≈ 212 to 423 mM).

Q: And the solubility ([2]; Glycerin, 25 °C, organic solvent or mixture, vehicle Glycerin)?
A: Its solubility is less than 10 mg/mL.

Q: What about the solubility ([2]; Glyceryl mono and di stearate, 70 °C, oil or lipid, vehicle Glyceryl mono and di stearate) of the same compound?
A: Its solubility is 25 to 50 mg/mL (≈ 106 to 212 mM).

Q: And the solubility ([2]; Glyceryl monocaprate type I, 25 °C, oil or lipid, vehicle Glyceryl monocaprate type I)?
A: The solubility was 8.3 to 12.5 mg/mL (≈ 35.1 to 52.9 mM).

Q: And the solubility ([2]; Glyceryl monolinoleate, 25 °C, oil or lipid, vehicle Glyceryl monolinoleate)?
A: Its solubility is less than 5 mg/mL.

Q: What about the solubility ([2]; Glyceryl monostearate, 70 °C, oil or lipid, vehicle Glyceryl monostearate) of the same compound?
A: The solubility was 25 to 50 mg/mL (≈ 106 to 212 mM).

Q: And the solubility ([2]; Hexylene glycol, 25 °C, organic solvent or mixture, vehicle Hexylene glycol)?
A: Its solubility is 25 to 50 mg/mL (≈ 106 to 212 mM).

Q: What about the solubility ([2]; Isopropyl myristate, 25 °C, oil or lipid, vehicle Isopropyl myristate) of the same compound?
A: The solubility was less than 5 mg/mL.

Q: What about the solubility ([2]; Lanolin, 70 °C, oil or lipid, vehicle Lanolin) of the same compound?
A: The solubility was less than 5 mg/mL.

Q: And the solubility ([2]; Lauroyl polyoxyl-6 glycerides, 50 °C, oil or lipid, vehicle Lauroyl polyoxyl-6 glycerides)?
A: The solubility was less than 10 mg/mL.

Q: What about the solubility ([2]; Lauroyl polyoxyl-32 glycerides, 50 °C, oil or lipid, vehicle Lauroyl polyoxyl-32 glycerides) of the same compound?
A: Its solubility is less than 10 mg/mL.

Q: What about the solubility ([2]; Linoleoyl polyoxyl-6 glycerides, 25 °C, oil or lipid, vehicle Linoleoyl polyoxyl-6 glycerides) of the same compound?
A: The solubility was less than 5 mg/mL.

Q: What about the solubility ([2]; Liquid paraffin, 25 °C, oil or lipid, vehicle Liquid paraffin) of the same compound?
A: The solubility was less than 5 mg/mL.

Q: And the solubility ([2]; Medium chain triglycerides, 25 °C, oil or lipid, vehicle Medium chain triglycerides)?
A: The solubility was less than 5 mg/mL.

Q: What about the solubility ([2]; N-methyl-2-pyrrolidone, 25 °C, organic solvent or mixture, vehicle N-methyl-2-pyrrolidone) of the same compound?
A: The solubility was greater than 200 mg/mL.

Q: What about the solubility ([2]; Oleic acid, 25 °C, oil or lipid, vehicle Oleic acid) of the same compound?
A: Its solubility is less than 5 mg/mL.

Q: What about the solubility ([2]; Oleoyl polyoxyl-6 glycerides, 25 °C, oil or lipid, vehicle Oleoyl polyoxyl-6 glycerides) of the same compound?
A: The solubility was less than 5 mg/mL.

Q: And the solubility ([2]; Olive oil, 25 °C, oil or lipid, vehicle Olive oil)?
A: Its solubility is less than 5 mg/mL.

Q: What about the solubility ([2]; Paraffin, 70 °C, oil or lipid, vehicle Paraffin) of the same compound?
A: Its solubility is less than 5 mg/mL.

Q: What about the solubility ([2]; Peceol, 25 °C, oil or lipid, vehicle Peceol) of the same compound?
A: The solubility was less than 5 mg/mL.

Q: And the solubility ([2]; Poly-oxyethylene esters of 12-hydroxystearic acid, 50 °C, organic solvent or mixture, vehicle Poly-oxyethylene esters of 12-hydroxystearic acid)?
A: The solubility was 40 to 100 mg/mL (≈ 169 to 423 mM).

Q: And the solubility ([2]; Polyethylene glyco-40 hydrogenated castor oil, 50 °C, organic solvent or mixture, vehicle Polyethylene glyco-40 hydrogenated castor oil)?
A: The solubility was 22.2 to 28.6 mg/mL (≈ 93.9 to 121 mM).

Q: What about the solubility ([2]; Polyethylene glycol 200, 25 °C, organic solvent or mixture, vehicle Polyethylene glycol 200, 25° C.) of the same compound?
A: The solubility was 50 to 66.7 mg/mL (≈ 212 to 282 mM).

Q: What about the solubility ([2]; Polyethylene glycol 300, 25 °C, organic solvent or mixture, vehicle Polyethylene glycol 300, 25° C.) of the same compound?
A: Its solubility is 40 to 66.7 mg/mL (≈ 169 to 282 mM).

Q: What about the solubility ([2]; Polyethylene glycol 400, 25 °C, organic solvent or mixture, vehicle Polyethylene glycol 400, 25° C.) of the same compound?
A: The solubility was 40 to 66.7 mg/mL (≈ 169 to 282 mM).

Q: What about the solubility ([2]; Polyethylene glycol 1500, 70 °C, organic solvent or mixture, vehicle Polyethylene glycol 1500, 70° C.) of the same compound?
A: Its solubility is 50 to 100 mg/mL (≈ 212 to 423 mM).

Q: And the solubility ([2]; Polyethylene glycol 3350, 70 °C, organic solvent or mixture, vehicle Polyethylene glycol 3350, 70° C.)?
A: Its solubility is 25 to 50 mg/mL (≈ 106 to 212 mM).

Q: What about the solubility ([2]; Polyethylene glycol 6000, 70 °C, organic solvent or mixture, vehicle Polyethylene glycol 6000, 70° C.) of the same compound?
A: The solubility was 25 to 50 mg/mL (≈ 106 to 212 mM).

Q: And the solubility ([2]; Polyethylene glycol octadecyl ether, 25 °C, organic solvent or mixture, vehicle Polyethylene glycol octadecyl ether)?
A: The solubility was 10 to 11.1 mg/mL (≈ 42.3 to 47 mM).

Q: And the solubility ([2]; Polyethylene glycol sorbitan monolaurate, 25 °C, organic solvent or mixture, vehicle Polyethylene glycol sorbitan monolaurate)?
A: Its solubility is 12.5 to 14.3 mg/mL (≈ 52.9 to 60.5 mM).

Q: What about the solubility ([2]; Polyoxy ethylene sorbitan monooleate, 25 °C, organic solvent or mixture, vehicle Polyoxy ethylene sorbitan monooleate) of the same compound?
A: Its solubility is 12.5 to 14.3 mg/mL (≈ 52.9 to 60.5 mM).

Q: And the solubility ([2]; Polyoxy ethylene sorbitan monostearate, 25 °C, organic solvent or mixture, vehicle Polyoxy ethylene sorbitan monostearate)?
A: Its solubility is 33.3 to 50 mg/mL (≈ 141 to 212 mM).

Q: What about the solubility ([2]; Polyoxyl 35 hydrogenated castor oil, 25 °C, organic solvent or mixture, vehicle Polyoxyl 35 hydrogenated castor oil) of the same compound?
A: The solubility was 12.5 to 14.3 mg/mL (≈ 52.9 to 60.5 mM).

Q: What about the solubility ([2]; Propylene glycol dicaprylate, 25 °C, oil or lipid, vehicle Propylene glycol dicaprylate) of the same compound?
A: Its solubility is less than 5 mg/mL.

Q: And the solubility ([2]; Propylene glycol monocaprylate type II, 25 °C, oil or lipid, vehicle Propylene glycol monocaprylate type II)?
A: The solubility was 12.5 to 25 mg/mL (≈ 52.9 to 106 mM).

Q: What about the solubility ([2]; Propylene glycol monolaurate, 25 °C, oil or lipid, vehicle Propylene glycol monolaurate) of the same compound?
A: Its solubility is 8.3 to 12.5 mg/mL (≈ 35.1 to 52.9 mM).

Q: And the solubility ([2]; Propylene glycol, 25 °C, organic solvent or mixture, vehicle Propylene glycol)?
A: The solubility was 40 to 66.7 mg/mL (≈ 169 to 282 mM).

Q: And the solubility ([2]; Sorbitan monolaurate, 25 °C, oil or lipid, vehicle Sorbitan monolaurate)?
A: Its solubility is less than 5 mg/mL.

Q: And the solubility ([2]; Sorbitane monooleate, 25 °C, oil or lipid, vehicle Sorbitane monooleate)?
A: Its solubility is less than 5 mg/mL.

Q: What about the solubility ([2]; Triethanolamine, 25 °C, organic solvent or mixture, vehicle Triethanolamine) of the same compound?
A: The solubility was less than 10 mg/mL.

Q: What about the solubility ([2]; Water, 25 °C, vehicle Water) of the same compound?
A: The solubility was less than 5 mg/mL.

Q: And the solubility ([2]; White vaseline, 70 °C, oil or lipid, vehicle White vaseline)?
A: The solubility was less than 5 mg/mL.

Q: What about the solubility ([2]; White wax, 70 °C, oil or lipid, vehicle White wax) of the same compound?
A: Its solubility is less than 5 mg/mL.

Q: What about the solubility ([2]; d-a-tocopheryl polyethylene glycol 1000 succinate, 50 °C, oil or lipid, vehicle d-a-tocopheryl polyethylene glycol 1000 succinate) of the same compound?
A: The solubility was less than 10 mg/mL.
